Experimental data: ChEMBL document CHEMBL1143186, “Total synthesis and evaluation of [18F]MHMZ” (Bioorg Med Chem Lett, 2008)

Legend:
[1] = target: 5-hydroxytryptamine receptor 2A (Rattus norvegicus, UniProt P14842); test: Displacement of [3H]MDL from rat 5HT2A receptor expressed in GF62 cells; format: cell-based
Nucleic Acid [2] = test: Ratio of drug level in laminae 1-4 region to cerebellum in rat; format: ADME, tissue-based; conditions: in vivo
[3] = Metabolic stability in rat plasma assessed as unmetabolized fraction after 60 mins; format: ADME, cell-free; conditions: read-out: Stability
Nucleic Acid [4] = test: Ratio of drug level in laminae 6a + 6b region to cerebellum in rat; format: ADME, tissue-based; conditions: in vitro
Laminae = test: Drug level in rat brain laminae 6a + 6b region; format: ADME, tissue-based; conditions: in vivo
[5] = Metabolic stability in rat plasma assessed as unmetabolized fraction after 5 mins; format: ADME, cell-free; conditions: read-out: Stability
[6] = Metabolic stability in rat plasma assessed as unmetabolized fraction after 10 mins; format: ADME, cell-free; conditions: read-out: Stability
Caudate-putamen = test: Drug level in rat brain caudate-putamen; format: ADME, tissue-based; conditions: in vivo
Nucleic Acid [7] = test: Ratio of drug level in lamina 5 region to cerebellum in rat; format: ADME, tissue-based; conditions: in vivo
Brain [8] = test: Drug level in rat brain lamina 5 region; format: ADME, tissue-based; conditions: in vivo
Brain [9] = test: Drug level in rat brain laminae 1-4 region; format: ADME, tissue-based; conditions: in vivo
Nucleic Acid [10] = test: Ratio of drug level in caudate-putamen to cerebellum in rat; format: ADME, tissue-based; conditions: in vitro
[11] = Metabolic stability in rat plasma assessed as unmetabolized fraction after 30 mins; format: ADME, cell-free; conditions: read-out: Stability
[12] = target: 5-hydroxytryptamine receptor 2A (Homo sapiens, UniProt P28223); test: Binding affinity to 5HT2A receptor
Chain of 5-hydroxytryptamine receptor 2A (Homo sapiens, UniProt P28223) (P28223 whole entry): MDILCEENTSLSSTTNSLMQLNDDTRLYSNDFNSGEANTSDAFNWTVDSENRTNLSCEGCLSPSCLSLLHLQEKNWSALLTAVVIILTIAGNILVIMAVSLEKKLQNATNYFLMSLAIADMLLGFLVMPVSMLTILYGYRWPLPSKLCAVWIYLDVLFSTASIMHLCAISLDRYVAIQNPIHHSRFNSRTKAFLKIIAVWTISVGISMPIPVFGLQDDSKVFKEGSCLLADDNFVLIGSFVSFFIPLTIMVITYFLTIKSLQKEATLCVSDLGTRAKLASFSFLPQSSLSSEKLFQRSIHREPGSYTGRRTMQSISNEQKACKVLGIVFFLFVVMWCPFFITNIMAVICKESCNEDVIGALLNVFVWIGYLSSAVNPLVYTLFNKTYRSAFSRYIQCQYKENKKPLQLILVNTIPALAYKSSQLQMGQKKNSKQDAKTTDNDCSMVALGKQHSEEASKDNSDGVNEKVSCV

Chain of 5-hydroxytryptamine receptor 2A (Rattus norvegicus, UniProt P14842) (P14842 whole entry): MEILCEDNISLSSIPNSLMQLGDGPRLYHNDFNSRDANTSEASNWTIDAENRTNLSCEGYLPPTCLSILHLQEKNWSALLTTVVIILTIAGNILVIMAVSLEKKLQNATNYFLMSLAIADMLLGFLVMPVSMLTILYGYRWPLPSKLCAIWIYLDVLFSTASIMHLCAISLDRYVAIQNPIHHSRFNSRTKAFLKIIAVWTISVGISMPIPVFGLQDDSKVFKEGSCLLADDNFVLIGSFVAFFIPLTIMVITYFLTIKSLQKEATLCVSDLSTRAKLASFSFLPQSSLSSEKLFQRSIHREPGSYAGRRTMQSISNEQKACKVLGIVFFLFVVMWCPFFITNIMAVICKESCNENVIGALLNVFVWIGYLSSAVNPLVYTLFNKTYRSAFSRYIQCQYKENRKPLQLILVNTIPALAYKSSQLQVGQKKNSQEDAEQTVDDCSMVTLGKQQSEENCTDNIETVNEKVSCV

Compound	Ki [1] [nM]	Ratio (Nucleic Acid [2])	remaining at 1 h [3] [%]	Ratio (Nucleic Acid [4])	Drug uptake (Laminae) [pmol/mm3]	remaining at 5 min [5] [%]	remaining at 10 min [6] [%]	Drug uptake (Caudate-putamen) [pmol/mm3]	Ratio (Nucleic Acid [7])	Drug uptake (Brain [8]) [pmol/mm3]	Drug uptake (Brain [9]) [pmol/mm3]	Ratio (Nucleic Acid [10])	remaining at 0.5 h [11] [%]	Ki [12] [nM]
COc1c(OCCF)cccc1C(O)C1CCN(CCc2ccc(F)cc2)CC1 (stereo not given)	9													
COc1c(OCC[18F])cccc1C(O)C1CCN(CCc2ccc(F)cc2)CC1 (stereo not given)		26.9	7	31.4	27.27	43	32	16.8	59.5	51.6	23.3	19.2	16	
O=C(c1ccc(F)cc1)C1CCN(CCn2c(=S)[nH]c3ccccc3c2=O)CC1 [ALTANSERIN]	0.74													0.13
